Values quoted from earlier work in article PMC9694544, “Conteltinib (CT-707) in patients with advanced ALK-positive non-small cell lung cancer: a multicenter, open-label, first-in-human phase 1 study” (BMC Medicine, 2022).

Tested on: xenograft models of ALK-positive NSCLC
Conditions: crizotinib-sensitive and crizotinib-resistant tumors; cited from earlier work

In the case of `COc1cc(N2CCC(N3CCN(C)CC3)CC2)ccc1Nc1nc2c(c(Nc3ccccc3S(=O)(=O)NC(C)C)n1)CCN2` [Conteltinib], the “anti-tumor activity in xenograft models” value is given as “marked anti-tumor activity”.
